PMC8160210, “Single tryptophan Y160W mutant of homooligomeric E. coli purine nucleoside phosphorylase implies that dimers forming the hexamer are functionally not equivalent” (Scientific Reports, 2021)

How the values were obtained:
Y160W PNP mutant [1] = target: T1, Y160W PNP mutant (Escherichia coli, UniProt P0ABP8, Y161W); assay: Fluorescence titrations with phosphate; set-up: made in house; host or cells: E. coli DH5α-T1; species or system E. coli; details: three-binding-site model, 25 °C
Method: All experiments were carried out on the Perkin-Elmer LS55 spectrofluorimeter. Fluorescence spectra were registered using in each case (protein or protein–ligand complex) several excitation wavelengths. Differential spectra were calculated by subtracting spectrum of a protein from the spectrum of the appropriate complex. The negative differential fluorescence intensity means that a decrease of fluorescence upon complex formation is observed. Titrations of the enzyme with phosphate were registered using several excitation and observation wavelengths combinations. When selecting specific wavelengths for such a combination, two criteria were used: (1) the overall change in the fluorescence signal and (2) the complexity of the shape of the titration as the analysis of the multi-phasic curves is more explicit than a uni-phasic curve analysis.
Path length for the excitation was 2 mm and for the emission was 5 mm (half of the cuvette dimensions). A continuous stirring was used during titrations. All measurements were performed at 25 °C. […]
Fluorescence intensity of the WT protein is stable over time, but in the case of the Y160W mutant a slight quenching of fluorescence is observed during titration, which typically lasted about 30 min as the time between each point in the titration was 1 min. Furthermore, adding phosphate during titration stabilises the intrinsic fluorescence of the protein. […] Thus corrected binding curves, F^cor([Pi]), are given by the following equation, in which Fn([Pi]) is the fluorescence intensity measured for the phosphate concentration [Pi], and n is the number of a given titration point in the particular titration:4 FncorPi=FnPi+∑m=1naPim
To check its influence on the intrinsic protein fluorescence, titrations with NaCl were performed, giving dependence F(I). […] Titration curves of the WT protein with phosphate were therefore measured up to 100 mM ionic strength of solution, which is enough to observe a plateau. […] Both F^obs([Pi]) and F(I) were corrected for the time dependent fluorescence quenching, according to Eq. (4), prior to the F^bind([Pi]) calculation. […]

Y160W PNP mutant [2] = target: T1, Y160W PNP mutant; assay: Thermophoretic (MST) titrations with phosphate; set-up: made in house; host or cells: E. coli DH5α-T1; species or system E. coli; details: two-binding-site model, 25 °C
Method: Measurements were performed with Monolith NT115 (NanoTemper). Enzyme was labelled with NT647 fluorescent dye (NanoTemper) according to the protocol provided by the manufacturer. Labelled proteins show fluorescence excitation and emission maxima of approximately 650 and 670 nm, respectively. The series of titrations were performed at a constant protein concentration. Both proteins (WT and mutant), and ligands were dissolved in 50 mM Tris/HCl pH 7.6 buffer, measurements were performed at 25 °C. […] In the pre-experiments, it was carefully checked for both proteins, WT and Y160W mutant whether any sign of aggregation or inactivation occurs, and if mutant behaviour is similar to that of the WT enzyme. […]
For experiments of the binary complex formation with phosphate, curves were measured at four different powers of the heating laser. Two to five titrations at each heating power were measured, and curves were averaged for a particular heating power. […] This is an area inaccessible in fluorescence titration due to the quenching of the protein fluorescence at such a high ionic strength of the solution. […]
Titration series were analysed globally, always starting from the simplest, one-binding-site model. […] For all tested models the Akaike information criterion[23] was also calculated. […]

[3] = 50 mM Tris/HCl pH 7.6, read-out: Kd1 ± SD
[4] = 50 mM Tris/HCl pH 7.6, read-out: Kd3 ± SD

T1 sequence (P0ABP8 2-239 Y161W): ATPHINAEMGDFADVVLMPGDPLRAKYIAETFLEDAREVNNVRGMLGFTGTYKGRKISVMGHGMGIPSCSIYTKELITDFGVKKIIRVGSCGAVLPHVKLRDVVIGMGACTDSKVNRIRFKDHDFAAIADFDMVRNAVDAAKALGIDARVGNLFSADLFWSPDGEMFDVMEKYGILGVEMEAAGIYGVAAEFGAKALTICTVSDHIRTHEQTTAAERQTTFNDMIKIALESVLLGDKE

## O=P(O)(O)O [Pi, Orthophosphate]
Y160W PNP mutant [1]; [3]
  Kd: 7 µM
Y160W PNP mutant [1]; 50 mM Tris/HCl pH 7.6, read-out: Kd2 ± SD
  Kd: 200 µM
Y160W PNP mutant [1]; [4]
  Kd: 3200 µM
Y160W PNP mutant [2]; [3]
  Kd: 3.2 µM
Y160W PNP mutant [2]; [4]
  Kd: 1280 µM
